The source made the active and inactive calls. The rule behind the calls is not given here.
Tests used:
Plasmodium falciparum [1] = experiment: Antiplasmodial activity against chloroquine-sensitive Plasmodium falciparum FCR-3 infected in human erythrocytes measured after 72 hrs by malstat reagent based LDH release assay; type: functional, organism-based; conditions: FCR-3/Gambia
[2] = Selectivity index, ratio of cytotoxic concentration for human MRC5 cells to IC50 for chloroquine-resistant Plasmodium falciparum K1 infected in human erythrocytes
Plasmodium falciparum [3] = experiment: Antiplasmodial activity against chloroquine-resistant Plasmodium falciparum K1 infected in human erythrocytes measured after 72 hrs by malstat reagent based LDH release assay; type: functional, organism-based; conditions: K1, 72 h
[4] = Inhibition of Plasmodium falciparum FCR-3 HDP expressed in Escherichia coli assessed as reduction in hemazoin formation; set-up: species or system Plasmodium falciparum FCR-3/Gambia
[5] = Binding affinity to hemin at pH 5.2 by ITC
Plasmodium berghei [6] = experiment: Antimalarial activity against Plasmodium berghei N infected in mouse assessed as mouse survival at 15 mg/kg, po once daily for 4 consecutive days starting from 2 hrs post infection relative to control; type: functional
Plasmodium berghei [7] = experiment: Antimalarial activity against Plasmodium berghei N infected in mouse assessed as inhibition of parasitemia at 15 mg/kg, po once daily for 4 consecutive days starting from 2 hrs post infection measured on day 4 post last dose relative to control; type: functional
Plasmodium berghei [8] = experiment: Antimalarial activity against Plasmodium berghei N infected in mouse assessed as mouse survival at 30 mg/kg, po once daily for 4 consecutive days starting from 2 hrs post infection relative to control; type: functional
Plasmodium berghei [9] = experiment: animal or person; type: functional; conditions: N, in Mus musculus, po
Plasmodium berghei [10] = experiment: animal or person; type: functional; conditions: N, in Mus musculus, sc
Plasmodium berghei [11] = experiment: Antimalarial activity against Plasmodium berghei N infected in mouse assessed as mouse survival at 30 mg/kg, sc once daily for 4 consecutive days starting from 2 hrs post infection relative to control; type: functional

Question: With `CN(CCNc1nc2ccccc2[nH]1)CCNc1ccnc2cc(Cl)ccc12` as the compound, how does the IC50 (Plasmodium falciparum [1]) read?
Answer: 230 nM

Question: And the selectivity ratio [2]?
Answer: 8.5

Question: And the IC50 (Plasmodium falciparum [3])?
Answer: 3100 nM

Question: With `CN(CCNc1nc2ccccc2[nH]1)CCNc1nc2ccccc2[nH]1` as the compound, how does the IC50 (Plasmodium falciparum [1]) read?
Answer: 17300 nM

Question: What about the selectivity ratio [2] of the same compound?
Answer: 4.7

Question: What about the IC50 (Plasmodium falciparum [3]) of the same compound?
Answer: 19000 nM

Question: With `CCN(CC)CCCC(C)Nc1ccnc2cc(Cl)ccc12` (stereo unspecified) [CHLOROQUINE] as the compound, how does the IC50 [4] read?
Answer: 46 nM

Question: What about the Activity [5] of the same compound?
Answer: Active

Question: With `CN(CCNc1ccc2ccccc2n1)CCNc1ccc2ccccc2n1` as the compound, how does the IC50 (Plasmodium falciparum [1]) read?
Answer: 21000 nM

Question: What about the selectivity ratio [2] of the same compound?
Answer: 17

Question: What about the IC50 (Plasmodium falciparum [3]) of the same compound?
Answer: 18000 nM

Question: Which IC50 (Plasmodium falciparum [1]) does the source give for `CN(CCNC(=O)C=Cc1cnc[nH]1)CCNc1ccnc2cc(Cl)ccc12` here?
Answer: 750 nM

Question: And the selectivity ratio [2]?
Answer: > 14

Question: And the IC50 (Plasmodium falciparum [3])?
Answer: 18000 nM

Question: For `CN(CCNC(=O)C=Cc1ccc2ccccc2n1)CCNc1ccnc2cc(Cl)ccc12`, which IC50 (Plasmodium falciparum [1]) is on record?
Answer: 76 nM

Question: And the selectivity ratio [2]?
Answer: 6

Question: And the IC50 (Plasmodium falciparum [3])?
Answer: 870 nM

Question: Which IC50 (Plasmodium falciparum [1]) does the source give for `CN(CCCNc1ccc2ccccc2n1)CCCNc1ccnc2cc(Cl)ccc12` here?
Answer: 0.92 nM

Question: And the IC50 [4]?
Answer: 0.92 nM

Question: And the selectivity ratio [2]?
Answer: 61

Question: What about the Activity [5] of the same compound?
Answer: Active

Question: And the IC50 (Plasmodium falciparum [3])?
Answer: 37 nM

Question: With `C[C@H]1[C@H](OC(=O)CCC(=O)O)O[C@@H]2O[C@@]3(C)CC[C@H]4[C@H](C)CC[C@@H]1[C@@]24OO3` [ARTESUNATE] as the compound, how does the survival at 15 mg/kg (Plasmodium berghei [6]) read?
Answer: 103%

Question: What about the inhibition in vivo at 15 mg/kg (Plasmodium berghei [7]) of the same compound?
Answer: 95.2%

Question: With `CN(CCNc1ccccn1)CCNc1ccnc2cc(Cl)ccc12` as the compound, how does the IC50 (Plasmodium falciparum [1]) read?
Answer: 510 nM

Question: And the selectivity ratio [2]?
Answer: 430

Question: And the IC50 (Plasmodium falciparum [3])?
Answer: 1100 nM

Question: With `CN(CCNc1nccc2ccccc12)CCNc1ccnc2cc(Cl)ccc12` as the compound, how does the IC50 (Plasmodium falciparum [1]) read?
Answer: 24 nM

Question: And the selectivity ratio [2]?
Answer: 36

Question: What about the IC50 (Plasmodium falciparum [3]) of the same compound?
Answer: 270 nM

Question: With `CN(CCNC(=O)C=Cc1ccc2ccccc2c1)CCNc1ccnc2cc(Cl)ccc12` as the compound, how does the IC50 (Plasmodium falciparum [1]) read?
Answer: 12 nM

Question: And the survival at 30 mg/kg (Plasmodium berghei [8])?
Answer: 100%

Question: And the inhibition in vivo at 30 mg/kg (Plasmodium berghei [9])?
Answer: 23.5%

Question: And the IC50 [4]?
Answer: 12 nM

Question: And the inhibition in vivo at 30 mg/kg (Plasmodium berghei [10])?
Answer: 100%

Question: What about the selectivity ratio [2] of the same compound?
Answer: 1200

Question: And the Activity [5]?
Answer: Active

Question: What about the survival at 30 mg/kg (Plasmodium berghei [11]) of the same compound?
Answer: 223%

Question: What about the IC50 (Plasmodium falciparum [3]) of the same compound?
Answer: 28 nM

Question: For `CN(CCNc1ccc2ccccc2n1)CCNc1ccnc2cc(Cl)ccc12`, which IC50 (Plasmodium falciparum [1]) is on record?
Answer: 29 nM

Question: And the selectivity ratio [2]?
Answer: 36

Question: And the IC50 (Plasmodium falciparum [3])?
Answer: 370 nM

Question: For `CN(CCCNc1ccnc2cc(Cl)ccc12)CCCNc1ccnc2cc(Cl)ccc12`, which IC50 (Plasmodium falciparum [1]) is on record?
Answer: 97 nM

Question: And the selectivity ratio [2]?
Answer: 66

Question: What about the IC50 (Plasmodium falciparum [3]) of the same compound?
Answer: 21 nM

Question: Which IC50 (Plasmodium falciparum [1]) does the source give for `CN(CCCNC(=O)C=Cc1ccc2ccccc2c1)CCCNc1ccnc2cc(Cl)ccc12` here?
Answer: 4.9 nM

Question: What about the selectivity ratio [2] of the same compound?
Answer: 140

Question: And the IC50 (Plasmodium falciparum [3])?
Answer: 10 nM

Question: What does the source list for `CN(CCNc1ncccn1)CCNc1ccnc2cc(Cl)ccc12`?
Answer: IC50 (Plasmodium falciparum [1]): 210 nM; selectivity ratio [2]: 40; IC50 (Plasmodium falciparum [3]): 750 nM

Reference: ChEMBL document CHEMBL4266001, “Potent Antimalarial Activity of Two Arenes Linked with Triamine Designed To Have Multiple Interactions with Heme” (ACS Med Chem Lett, 2018)
